Converted amounts (≈) assume the structure as drawn. Read-outs that look alike come from different tables or passages of the source.
Legend:
[1] = tested on: C. albicans 73; experiment: Microbiological activity on C. albicans (MIC); type: cell-based; conditions: Fluid Sab. Med, 36° C.; for MIC: Candida albicans, 73
Description: (§1) MIC (ng/ml) Hemolytic con.(mcg/ml)
(§2) C. albicans 73 rat erytrocytes, […]

[2] = tested on: rat erytrocytes; experiment: Hemolytic activity on rat erythrocytes; type: cell-based
Description: as §1, §2

[3] = Acute toxicity in mice (DL50); type: in vivo; conditions: mouse, in vivo
[4] = tested on: mice; experiment: Acute toxicity in mice (DL50); type: in vivo
[5] = Solubility and reaction in water; type: physicochemical
[6] = cited from earlier work
[7] = 24 h, read-out: MIC C. albicans 73, 24 h
[8] = 48 h, read-out: MIC C. albicans 73, 48 h
[9] = rat erytrocytes, 4 h at 37° C., minimum
[10] = rat erytrocytes, 4 h at 37° C., total

| Compound | MIC [1, 7] [mg/L] | MIC [1, 8] [mg/L] | Hemolytic con. total (THC) [2] [µg/mL] | Hemolytic con. min. (MHC) ([2]; rat, 240 min) [µg/mL] | LD50 ([3]; ip, read-out: DL50 mice i.p.) [mg/kg] | also measured |
| --- | --- | --- | --- | --- | --- | --- |
| CNc1ccc(C(=O)CC(O)CCC(C)C2OC(=O)CC(O)CC(=O)CC(O)CC(O)CC(O)CC(O)CC3(O)CC(O)C(C(=O)NCCN(C)C)C(CC(OC4OC(C)C(O)C(NC(=O)CN5CCN(C)CC5)C4O)C=CC=CC=CC=CC=CC=CC=CC2C)O3)cc1 (centres unmarked) [Partr. A, drawing 39, NHCH2 CH2N(CH3)2] | 0.0106 (≈ 0.00792 µM) | 0.03 (≈ 0.0224 µM) | 18 | 2 | > 100 | – |
| CNc1ccc(C(=O)CC(O)CCC(C)C2OC(=O)CC(O)CC(=O)CC(O)CC(O)CC(O)CC(O)CC3(O)CC(O)C(C(=O)NCCN(C)C)C(CC(OC4OC(C)C(O)C(NC(=O)CN5CCN(CCO)CC5)C4O)C=CC=CC=CC=CC=CC=CC=CC2C)O3)cc1 (centres unmarked) [Partr. A, drawing 45, NHCH2 CH2N(CH3)2] | 0.0075 (≈ 0.00548 µM) | 0.0212 (≈ 0.0155 µM) | 18 | 0.7 | > 100 | – |
| CNc1ccc(C(=O)CC(O)CCC(C)C2OC(=O)CC(O)CC(=O)CC(O)CC(O)CC(O)CC(O)CC3(O)CC(O)C(C(=O)NCCN(C)C)C(CC(OC4OC(C)C(O)C(NC(=O)CN(C)C)C4O)C=CC=CC=CC=CC=CC=CC=CC2C)O3)cc1 (centres unmarked) [Partr. A, COCH2N(CH3)2, NHCH2 CH2N(CH3)2, N-dimethylaminoacetyl-partricin A 2-dimethylaminoethylamide] | 0.0075 (≈ 0.00585 µM) | 0.015 (≈ 0.0117 µM) | > 18 | 18 | 158 | LD50 ([3]; iv, read-out: DL50 mice i.v.): 58 mg/kg |
| CNc1ccc(C(=O)CC(O)CCC(C)C2OC(=O)CC(O)CC(=O)CC(O)CC(O)CC(O)CC(O)CC3(O)CC(O)C(C(=O)N4CCN(CCO)CC4)C(CC(OC4OC(C)C(O)C(NC(=O)CCN5CCCCC5)C4O)C=CC=CC=CC=CC=CC=CC=CC2C)O3)cc1 (centres unmarked) [Partr. A, drawing 34, drawing 35] | 0.0075 (≈ 0.00544 µM) | 0.03 (≈ 0.0218 µM) | 2 | 0.2 | – | – |
| mepartricin [Partr., H, OCH3, reference compound] | – | – | – | – | – | MIC C. albicans 73, 24 h ([1]; 24 h): 0.0075 mg/L; MIC C. albicans 73, 48 h ([1]; 48 h): 0.03 mg/L; Hemolytic con. min. (MHC) [2, 9]: 0.7 µg/mL; Hemolytic con. total (THC) [2, 10]: 18 µg/mL; DL50 mice i.p. [4]: 15.8 mg/kg; DL50 mice i.v. ([4]; i.v.): 5.02 mg/kg |
| CNc1ccc(C(=O)CC(O)CCC(C)C2OC(=O)CC(O)CC(=O)CC(O)CC(O)CC(O)CC(O)CC3(O)CC(O)C(C(=O)NCCc4ccccn4)C(CC(OC4OC(C)C(O)C(NC(=O)CN(C)C)C4O)C=CC=CC=CC=CC=CC=CC=CC2C)O3)cc1 (centres unmarked) [Partr. A, COCH2N(CH3)2, drawing 50] | 0.015 (≈ 0.0114 µM) | 0.0424 (≈ 0.0322 µM) | > 18 | 18 | > 300 | LD50 ([3]; iv, read-out: DL50 mice i.v.): 76.8 mg/kg |
| CNc1ccc(C(=O)CC(O)CCC(C)C2OC(=O)CC(O)CC(=O)CC(O)CC(O)CC(O)CC(O)CC3(O)CC(O)C(C(=O)OC)C(CC(OC4OC(C)C(O)C(NC(=O)CN5CCN(CCO)CC5)C4O)C=CC=CC=CC=CC=CC=CC=CC2C)O3)cc1 (centres unmarked) [Partr. A, drawing 44, OCH3] | 0.015 (≈ 0.0114 µM) | 0.03 (≈ 0.0229 µM) | 18 | 0.7 | > 30 | – |
| CNc1ccc(C(=O)CC(O)CCC(C)C2OC(=O)CC(O)CC(=O)CC(O)CC(O)CC(O)CC(O)CC3(O)CC(O)C(C(=O)N4CCN(CCO)CC4)C(CC(OC4OC(C)C(O)C(NC(=O)CN5CCN(CCO)CC5)C4O)C=CC=CC=CC=CC=CC=CC=CC2C)O3)cc1 (centres unmarked) [Partr. A, drawing 46, drawing 47] | 0.0106 (≈ 0.00752 µM) | 0.0212 (≈ 0.015 µM) | 0.7 | 0.2 | – | – |
| CNc1ccc(C(=O)CC(O)CCC(C)C2OC(=O)CC(O)CC(=O)CC(O)CC(O)CC(O)CC(O)CC3(O)CC(O)C(C(=O)NCCN(C)C)C(CC(OC4OC(C)C(O)C(NC(=O)CCN5CCCCC5)C4O)C=CC=CC=CC=CC=CC=CC=CC2C)O3)cc1 (centres unmarked) [Partr. A, drawing 33, NHCH2 CH2N(CH3)2] | 0.0075 (≈ 0.00561 µM) | 0.03 (≈ 0.0224 µM) | 18 | 6 | 43.6 | – |
| CNc1ccc(C(=O)CC(O)CCC(C)C2OC(=O)CC(O)CC(=O)CC(O)CC(O)CC(O)CC(O)CC3(O)CC(O)C(C(=O)N4CCN(C)CC4)C(CC(OC4OC(C)C(O)C(NC(=O)CCN5CCCCC5)C4O)C=CC=CC=CC=CC=CC=CC=CC2C)O3)cc1 (centres unmarked) [Partr. A, drawing 36, drawing 37] | 0.0075 (≈ 0.00556 µM) | 0.015 (≈ 0.0111 µM) | 3.5 | 0.2 | – | – |
| CNc1ccc(C(=O)CC(O)CCC(C)C2OC(=O)CC(O)CC(=O)CC(O)CC(O)CC(O)CC(O)CC3(O)CC(O)C(C(=O)OC)C(CC(OC4OC(C)C(O)C(NC(=O)CN5CCN(C)CC5)C4O)C=CC=CC=CC=CC=CC=CC=CC2C)O3)cc1 (centres unmarked) [Partr. A, drawing 38, OCH3] | 0.015 (≈ 0.0117 µM) | 0.03 (≈ 0.0234 µM) | 18 | 0.7 | 29.3 | – |
| CNc1ccc(C(=O)CC(O)CCC(C)C2OC(=O)CC(O)CC(=O)CC(O)CC(O)CC(O)CC(O)CC3(O)CC(O)C(C(=O)NCCN(C)C)C(CC(OC4OC(C)C(O)C(NC(=O)CN(C)C)C4O)C=CC=CC=CC=CC=CC=CC=CC2C)O3)cc1 (centres unmarked) [Example 5, N-DIMETHYLAMINOACETYL-PARTRICIN A 2-DIMETHYL-AMINOETHYLAMIDE DIASPARTATE] | – | – | – | – | – | solubility in water [5]: soluble in water; pH of aqueous solution (almost neutral reaction) ([5]; in water): 6 |
| CNc1ccc(C(=O)CC(O)CCC(C)C2OC(=O)CC(O)CC(=O)CC(O)CC(O)CC(O)CC(O)CC3(O)CC(O)C(C(=O)N4CCN(C)CC4)C(CC(OC4OC(C)C(O)C(NC(=O)CN5CCN(C)CC5)C4O)C=CC=CC=CC=CC=CC=CC=CC2C)O3)cc1 (centres unmarked) [Partr. A, drawing 42, drawing 43] | 0.0075 (≈ 0.00556 µM) | 0.0212 (≈ 0.0157 µM) | – | – | 3.8 | Hemolytic con. min. (MHC) [2, 9]: 0.2 µg/mL; Hemolytic con. total (THC) [2, 10]: 0.7 µg/mL |
| CNc1ccc(C(=O)CC(O)CCC(C)C2OC(=O)CC(O)CC(=O)CC(O)CC(O)CC(O)CC(O)CC3(O)CC(O)C(C(=O)NCCCN(C)C)C(CC(OC4OC(C)C(O)C(NC(=O)CN(C)C)C4O)C=CC=CC=CC=CC=CC=CC=CC2C)O3)cc1 (centres unmarked) | 0.015 (≈ 0.0116 µM) | 0.03 (≈ 0.0231 µM) | 10.4 | 0.2 | 12.4 | – |
| mepartricin | – | – | – | – | – | solubility in water of mepartricin (words, background) [6]: water-insoluble |
| CNc1ccc(C(=O)CC(O)CCC(C)C2OC(=O)CC(O)CC(=O)CC(O)CC(O)CC(O)CC(O)CC3(O)CC(O)C(C(=O)N4CCN(CCO)CC4)C(CC(OC4OC(C)C(O)C(NC(=O)CN5CCN(C)CC5)C4O)C=CC=CC=CC=CC=CC=CC=CC2C)O3)cc1 (centres unmarked) [Partr. A, drawing 40, drawing 41] | 0.015 (≈ 0.0109 µM) | 0.0212 (≈ 0.0154 µM) | 2 | 0.2 | – | – |
| CNc1ccc(C(=O)CC(O)CCC(C)C2OC(=O)CC(O)CC(=O)CC(O)CC(O)CC(O)CC(O)CC3(O)CC(O)C(C(=O)OC)C(CC(OC4OC(C)C(O)C(NC(=O)CCN5CCCCC5)C4O)C=CC=CC=CC=CC=CC=CC=CC2C)O3)cc1 (centres unmarked) [Partr. A, drawing 32, OCH3] | 0.0075 (≈ 0.00586 µM) | 0.0424 (≈ 0.0331 µM) | 18 | 3.5 | > 30 | – |
| CNc1ccc(C(=O)CC(O)CCC(C)C2OC(=O)CC(O)CC(=O)CC(O)CC(O)CC(O)CC(O)CC3(O)CC(O)C(C(=O)N4CCN(CCO)CC4)C(CC(OC4OC(C)C(O)C(NC(=O)CN(C)C)C4O)C=CC=CC=CC=CC=CC=CC=CC2C)O3)cc1 (centres unmarked) [Partr. A, COCH2N(CH3)2, drawing 30] | 0.0075 (≈ 0.00566 µM) | 0.0212 (≈ 0.016 µM) | 0.7 | 0.2 | – | – |
| partricin [Partr., H, OH, reference compound] | – | – | – | – | – | MIC C. albicans 73, 24 h ([1]; 24 h): 0.03 mg/L; MIC C. albicans 73, 48 h ([1]; 48 h): 0.06 mg/L; Hemolytic con. min. (MHC) [2, 9]: < 0.2 µg/mL; Hemolytic con. total (THC) [2, 10]: < 0.2 µg/mL; DL50 mice i.p. [4]: 0.63 mg/kg |
| CNc1ccc(C(=O)CC(O)CCC(C)C2OC(=O)CC(O)CC(=O)CC(O)CC(O)CC(O)CC(O)CC3(O)CC(O)C(C(=O)N4CCN(C)CC4)C(CC(OC4OC(C)C(O)C(NC(=O)CN5CCN(CCO)CC5)C4O)C=CC=CC=CC=CC=CC=CC=CC2C)O3)cc1 (centres unmarked) [Partr. A, drawing 48, drawing 49] | 0.0075 (≈ 0.00544 µM) | 0.015 (≈ 0.0109 µM) | 0.7 | 0.2 | – | – |
| CNc1ccc(C(=O)CC(O)CCC(C)C2OC(=O)CC(O)CC(=O)CC(O)CC(O)CC(O)CC(O)CC3(O)CC(O)C(C(=O)NCCc4ccccn4)C(CC(OC4OC(C)C(O)C(NC(=O)CCN5CCCCC5)C4O)C=CC=CC=CC=CC=CC=CC=CC2C)O3)cc1 (centres unmarked) [Partr. A, drawing 51, drawing 52] | 0.03 (≈ 0.0219 µM) | 0.06 (≈ 0.0438 µM) | > 18 | 6 | > 300 | LD50 ([3]; iv, read-out: DL50 mice i.v.): 109 mg/kg |
| CNc1ccc(C(=O)CC(O)CCC(C)C2OC(=O)CC(O)CC(=O)CC(O)CC(O)CC(O)CC(O)CC3(O)CC(O)C(C(=O)N4CCN(C)CC4)C(CC(OC4OC(C)C(O)C(NC(=O)CN(C)C)C4O)C=CC=CC=CC=CC=CC=CC=CC2C)O3)cc1 (centres unmarked) [Partr. A, COCH2N(CH3)2, drawing 31] | 0.0075 (≈ 0.00579 µM) | 0.0212 (≈ 0.0164 µM) | – | – | 3.6 | Hemolytic con. min. (MHC) [2, 9]: 0.2 µg/mL; Hemolytic con. total (THC) [2, 10]: 2 µg/mL |

Reference: patent US5298495A, “Partricin derivatives” (SPA Societa' Prodotti Antibiotici SpA, priority 1990, dated 1994)
